The subject of data set [1] is influenza virus A/Puerto Rico/8/34 (H1N1). Kind of data set: Antiviral (cytoprotective) activity in MDCK cells, MTT. The class given is cell-based. Particulars: H1N1; infected MDCK cells, m.o.i. 0.01, 48 h, 50% cell protection; read-out: IC50.
Another data set deals with DU145. Nature of the data set: Initial cytotoxicity testing (MTT test), DU145. The class given is cell-based, human. To be noted: Homo sapiens, DU-145, 72 h, read-out: cytotoxicity DU145. On the procedure:
(§1) Colon cancer (HCT116, HT29), breast cancer (MCF7, SKBR3), melanoma (SK-MEL28), lung cancer (A549), prostate cancer (DU145), human normal cells (VA-13 and HEK293), and murine mammary cell lines (EMT6) were purchased from ATCC (Manassas, VA, USA). Cells were routinely grown in RPMI 1640 culture medium, supplemented with 10% fetal bovine serum, glutamine, and 100 U/mL penicillin. HCT116, HT29, MCF7, SKBR3, SK-MEL28, A549, DU145, VA-13, HEK293, and EMT6 cells were grown in flasks in RPMI 1640 fresh culture medium with supplements at 37 °C and 5% CO2. Cells were grown as monolayer cultures, and the cells in the exponential growth phase were trypsinized and suspended in the supplemented RPMI 1640 medium.
(§2) To evaluate the cytotoxicity of the compounds, we placed cells in (20–30) × 10^3 cells/mL concentrations in 96-well culture plates for 24 h. Cells were counted after treatment with Trypan blue solution (0.4%). They were then exposed to two different concentrations of compounds 16–30 (50–100 µM) dilutions in pre-incubated cells at 37 °C for 72 h. In control wells with untreated cells, only (DMSO + PBS) was added. Cell viability was measured by the standard MTT test. The stock solutions of each compound were prepared in DMSO following by preparation of serial dilutions in PBS.
(§3) The absorbance was measured at 540 nm using a Multiskan™ FC microplate photometer and the Skanlt software 6.1 RE for microplate reader, both from Thermo Scientific (Waltham, MA, USA). Experiments were carried out in triplicate; to perform the statistical analysis, more concentrations should be evaluated.
For orientation: Formazan colour is commonly taken as a measure of viable cells.

A short description of the next data set: in vitro. Particulars: dog.
Data set [2] in a line: Initial cytotoxicity testing (MTT test), VA-13. The class given is cell-based, human. To be noted: human healthy cells, MTT, 72 h, two concentrations 50–100 µM. On the procedure:
as §1, §2, §3

Data set [3] in a line: Initial cytotoxicity testing (MTT test), HEK293. Format: cell-based, human. Particulars: human healthy cells, MTT, 72 h, two concentrations 50–100 µM. On the procedure: as §1, §2, §3
Another data set relates to A549. Nature of the data set: Initial cytotoxicity testing (MTT test), A549. The class given is cell-based, human. To be noted: Homo sapiens, A549, 72 h, read-out: cytotoxicity A549. On the procedure:
as §1, §2, §3

The next data set has as its system VA-13. Kind of data set: Initial cytotoxicity testing (MTT test), VA-13. The class given is cell-based, human. Particulars: Homo sapiens, VA-13; normal cells, initial testing. On the procedure: as §1, §2, §3
A further data set has as its system HEK293. Nature of the data set: Initial cytotoxicity testing (MTT test), HEK293. Particulars: Homo sapiens, HEK293; normal cells, initial testing. Format: cell-based, human. The method, then:
as §1, §2, §3

Regarding `C/C1=C\CC[C@@]2(CC(c3ccc(Cl)cc3)=NO2)[C@H]2CC(C)(C)[C@@H]2CC1` [Compound 16a, (1S,2R,9R,E)-3′-(4-Chlorophenyl)-6,10,10-trimethyl-4′H-spiro[bicyclo [7.2.0]undecane-2,5′-isoxazol]-5-ene], the IC50 in data set [1] is 9.8 ± 1.3 µM; with DU145 it was greater than 50 µM; in the data set with A549, greater than 50 µM. The same compound displayed a CC50 at 48 h in “in vitro” of 125 ± 6.5 µM. The IC50 at 72 h in data set [2] and in data set [3] was greater than 50 µM in each case.

In the case of `C=C1CC[C@@H]2C(c3ccc(Cl)cc3)=NO[C@@]2(C)CC[C@@H]2[C@@H]1CC2(C)C` [Compound 16b, (3aR,6aS,8aR,10aS)-3-(4-chlorophenyl)-8,8,10a-trimethyl-6-methylene-3a,5,6,6a,7,8,8a,9,10,10a-decahydro-4H-cyclobuta [5,6]cyclonona [1,2-d]isoxazole], the IC50 in data set [1] was 16.8 ± 2.2 µM; with DU145, greater than 50 µM; with A549 it was greater than 50 µM. Also, the CC50 at 48 h in “in vitro” is 20.2 ± 1.9 µM. Besides, the IC50 at 72 h in data set [2] and in data set [3] was greater than 50 µM throughout.

Regarding `CC1=CCCC2(CC(c3cc(Br)ccc3O)=NO2)C2CC(C)(C)C2CC1` [Compound 18a, 4-Bromo-2-((1S,2R,9R,E)-6,10,10-trimethyl-4′H-spiro[bicyclo [7.2.0]undecane-2,5′-isoxazol]-5-en-3′-yl)phenol], the IC50 in data set [1] was 4.78 ± 0.6 µM; in the data set on DU145, greater than 50 µM; in the data set with A549, greater than 50 µM. The compound also yielded a CC50 at 48 h in “in vitro” of 25.1 ± 1.8 µM. Also, the IC50 at 72 h in data set [2] and in data set [3] was greater than 50 µM each time.

Consider `C=C1CC[C@H]2C(c3cc(Br)ccc3O)=NO[C@]2(C)CC[C@@H]2[C@@H]1CC2(C)C` [Compound 18b, 4-bromo-2-((3aS,6aS,8aR,10aR)-8,8,10a-trimethyl-6-methylene-3a,5,6,6a,7,8,8a,9,10,10a-decahydro-4H-cyclobuta [5,6]cyclonona [1,2-d]isoxazol-3-yl)phenol], for which the IC50 in the data set on DU145 is greater than 50 µM; in the data set with VA-13, 50 to 100 µM; with HEK293 it was 50 to 100 µM; with A549, greater than 50 µM. The IC50 at 72 h in data set [2] and in data set [3] was 50 to 100 µM each time.

As to `C/C1=C\CC[C@@]2(CC(Br)=NO2)[C@H]2CC(C)(C)[C@@H]2CC1` [Compound 19a, (1S,2R,9R,E)-3′-Bromo-6,10,10-trimethyl-4′H-spiro[bicyclo [7.2.0]undecane-2,5′-isoxazol]-5-ene], the IC50 in data set [1] was greater than 12.3 µM; in the data set with DU145 it was greater than 50 µM; in the data set with A549, greater than 50 µM. Also, the CC50 at 48 h in the data set “in vitro” stood at 19.6 ± 1.1 µM. Besides, the IC50 at 72 h in data set [2] and in data set [3] was greater than 50 µM throughout.

For `C=C1CC[C@H]2C(Br)=NO[C@]2(C)CC[C@@H]2[C@@H]1CC2(C)C` [Compound 19b, (3aR,6aS,8aR,10aR)-3-bromo-8,8,10a-trimethyl-6-methylene-3a,5,6,6a,7,8,8a,9,10,10a-decahydro-4H-cyclobuta [5,6]cyclonona [1,2-d]isoxazole], in data set [1], the IC50 is greater than 33.7 µM. This compound displayed a CC50 at 48 h in “in vitro” of 44.2 ± 3.6 µM.

For the compound `C=C1CC[C@@H]2C(C)=NN(c3ccccc3)[C@@]2(C)CC[C@@H]2[C@@H]1CC2(C)C` [Compound 21b, (3aS,6aS,8aR,10aS)-3,8,8,10a-tetramethyl-6-methylene-1-phenyl-1,3a,4,5,6,6a,7,8,8a,9,10,10a-dodecahydrocyclobuta [6,7]cyclonona [1,2-c]pyrazole], the IC50 in data set [1] is greater than 297 µM; in the data set on DU145, greater than 50 µM; in the data set with A549, greater than 50 µM. Moreover, in the data set “in vitro”, the CC50 at 48 h came out at 375 ± 15.6 µM. The IC50 at 72 h in data set [2] and in data set [3] was greater than 50 µM each time.

Consider `C/C1=C\CC[C@@]2(CC(c3ccccc3)=NN2c2ccccc2)[C@H]2CC(C)(C)[C@@H]2CC1` [Compound 22a, (1S,2R,9R,E)-6,10,10-Trimethyl-2′,5′-diphenyl-2′,4′-dihydrospiro[bicyclo [7.2.0]undecane-2,3′-pyrazol]-5-ene], for which the IC50 in data set [1] was 72.7 ± 9.2 µM; in the data set on DU145 it was greater than 50 µM; in the data set with VA-13 it was 50 to 100 µM; in the data set with HEK293, 50 to 100 µM; in the data set with A549, greater than 50 µM. In addition, the CC50 at 48 h in the data set “in vitro” is 170 ± 12.1 µM. The IC50 at 72 h in data set [2] and in data set [3] was 50 to 100 µM throughout.

On to `C=C1CC[C@H]2C(c3c(OC)cccc3OC)=NN(c3c(Cl)cc(Cl)cc3Cl)[C@]2(C)CC[C@@H]2[C@@H]1CC2(C)C` [Compound 23b, (3aR,6aS,8aR,10aR)-3-(2,6-dimethoxyphenyl)-8,8,10a-trimethyl-6-methylene-1-(2,4,6-trichlorophenyl)-1,3a,4,5,6,6a,7,8,8a,9,10,10a-dodecahydrocyclobuta [6,7]cyclonona [1,2-c]pyrazole], for which the IC50 in data set [1] was 178 ± 20.1 µM; in the data set on DU145 it was greater than 50 µM; in the data set with A549, greater than 50 µM. Moreover, in the data set “in vitro”, the CC50 at 48 h was greater than 535 µM. Moreover, the IC50 at 72 h in data set [2] and in data set [3] was greater than 50 µM each time.

As to `COc1ccc(C2=NO[C@]3(CC[C@@H]4C(c5ccc(OC)cc5)=NO[C@@]4(C)CC[C@@H]4[C@@H]3CC4(C)C)C2)cc1` [Compound 26, (3aR,6R,6aS,8aR,10aS)-3,3′-Bis(4-methoxyphenyl)-8,8,10a-trimethyl-3a,4,5,6a,7,8,8a,9,10,10a-decahydro-4′H-spiro[cyclobuta [5,6]cyclonona [1,2-d]isoxazole-6,5′-isoxazole]], the IC50 in data set [1] was greater than 652 µM; in the data set with DU145, greater than 50 µM; in the data set on A549 it was greater than 50 µM. The compound further came in with a CC50 at 48 h in “in vitro” greater than 652 µM. Besides, the IC50 at 72 h in data set [2] and in data set [3] was greater than 50 µM each time.

For `CC1(C)C[C@H]2[C@H]1CC[C@]1(C)[C@@H](CC[C@@]23CC(c2ccccc2)=NN3c2ccccc2)C(c2ccccc2)=NN1c1ccccc1` [Compound 29, (3aR,6R,6aS,8aR,10aR)-8,8,10a-trimethyl-1,2′,3,5′-tetraphenyl-2′,3a,4,4′,5,6a,7,8,8a,9,10,10a-Dodecahydro-1H-spiro[cyclobuta [6,7]cyclonona [1,2-c]pyrazole-6,3′-pyrazole]], the IC50 in data set [1] was 102 ± 12.6 µM; with DU145, greater than 50 µM; in the data set on A549, greater than 50 µM. The CC50 at 48 h in the data set “in vitro” was greater than 506 µM. The IC50 at 72 h in data set [2] and in data set [3] was greater than 50 µM throughout.

Turning to `COc1cccc(OC)c1C1=NN(c2c(Cl)cc(Cl)cc2Cl)[C@]2(CC[C@H]3C(c4c(OC)cccc4OC)=NN(c4c(Cl)cc(Cl)cc4Cl)[C@]3(C)CC[C@@H]3[C@@H]2CC3(C)C)C1` [Compound 30, (3aR,6R,6aS,8aR,10aR)-3,5′-Bis(2,6-dimethoxyphenyl)-8,8,10a-trimethyl-1,2′-bis(2,4,6-trichlorophenyl)-2′,3a,4,4′,5,6a,7,8,8a,9,10,10a-dodecahydro-1H-spiro[cyclobuta [6,7]cyclonona [1,2-c]pyrazole-6,3′-pyrazole]], the IC50 is 71 ± 8.8 µM in data set [1], greater than 50 µM with DU145 and greater than 50 µM with A549. For the same compound, the CC50 at 48 h in the data set “in vitro” was greater than 330 µM. For the same compound, the IC50 at 72 h in data set [2] and in data set [3] was greater than 50 µM in each case.
